Measurements: ChEMBL document CHEMBL1201862, “PubChem BioAssay data set” (2004)
Activity calls are given as the source filed them.

Experiments:
[1] = target: T1, Zinc finger protein mex-5 (Caenorhabditis elegans, UniProt Q9XUB2); experiment: potency of MEX-5 RNA-binding blockers – biochemical, C. elegans, fluorescence polarization, dose response (AID 1960)
T1 sequence (Q9XUB2 whole entry): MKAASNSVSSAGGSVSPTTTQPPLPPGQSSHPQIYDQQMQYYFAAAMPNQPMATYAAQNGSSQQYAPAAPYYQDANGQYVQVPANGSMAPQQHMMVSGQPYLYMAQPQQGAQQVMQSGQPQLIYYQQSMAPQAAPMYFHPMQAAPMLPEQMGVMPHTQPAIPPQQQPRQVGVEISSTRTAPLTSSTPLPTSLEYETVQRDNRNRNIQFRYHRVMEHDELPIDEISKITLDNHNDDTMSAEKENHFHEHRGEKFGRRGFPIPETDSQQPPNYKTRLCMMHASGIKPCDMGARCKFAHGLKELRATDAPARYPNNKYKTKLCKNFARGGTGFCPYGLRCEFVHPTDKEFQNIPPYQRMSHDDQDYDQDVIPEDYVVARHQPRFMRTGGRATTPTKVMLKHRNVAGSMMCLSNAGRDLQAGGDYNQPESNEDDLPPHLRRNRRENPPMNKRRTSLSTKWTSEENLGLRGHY

[2] = target: T2, RNA-binding protein pos-1 (Caenorhabditis elegans, UniProt G5EF15); experiment: disruptors of C. elegans POS-1 RNA interaction – biochemical, fluorescence polarization, dose response (AID 1964);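 further: purified POS-1 fused to maltose binding protein made in E. coli; potency of compounds blocking POS-1 binding to fluorescent RNA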
T2 sequence (G5EF15 whole entry): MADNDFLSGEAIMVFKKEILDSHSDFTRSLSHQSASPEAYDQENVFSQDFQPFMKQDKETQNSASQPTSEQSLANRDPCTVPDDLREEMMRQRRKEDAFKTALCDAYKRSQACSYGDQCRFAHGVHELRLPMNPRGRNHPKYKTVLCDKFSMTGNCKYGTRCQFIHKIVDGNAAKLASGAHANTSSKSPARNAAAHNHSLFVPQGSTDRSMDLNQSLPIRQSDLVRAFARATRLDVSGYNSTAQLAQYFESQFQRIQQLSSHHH

[3] = luciferase reporter signal suppression in cells – H4 neuroglioma cells, luminescence, dose response (AID 1990); assay type: functional, cell-based
[4] = Luminescence Cell-Based Dose Response HTS to Identify Inhibitors of 5'UTR Stem-Loop Driven Prion Protein mRNA Translation in H4 Neuroglioblastoma Cells. [Related pubchem assays: 1827 (Project Summary), 1813 (Primary HTS)]; assay type: functional
[5] = alpha-synuclein stem-loop luciferase translation blockers – H4 neuroglioma cells, luminescence, confirmation (AID 1988); assay type: functional, cell-based
[6] = target: T3, Calpain-2 catalytic subunit (Sus scrofa, UniProt P43367); experiment: m-calpain protease blockers, concentration series – biochemical, fluorogenic peptide substrate, dose response (AID 1420); assay type: functional
T3 sequence (P43367 whole entry): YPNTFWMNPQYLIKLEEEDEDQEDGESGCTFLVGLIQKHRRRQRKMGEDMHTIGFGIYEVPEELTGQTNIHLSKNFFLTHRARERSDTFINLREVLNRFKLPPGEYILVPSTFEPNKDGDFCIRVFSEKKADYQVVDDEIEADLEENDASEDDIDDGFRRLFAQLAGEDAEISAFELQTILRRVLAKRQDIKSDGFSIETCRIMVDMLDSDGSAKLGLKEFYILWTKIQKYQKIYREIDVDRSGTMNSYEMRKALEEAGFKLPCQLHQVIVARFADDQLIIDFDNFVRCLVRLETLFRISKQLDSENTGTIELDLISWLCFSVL

Protein RecA = target: T4, Protein RecA (Mycobacterium tuberculosis, UniProt P9WHJ3); experiment: Fluorescence Cell-Free Homogeneous Dose Retest to Identify Inhibitors of RecA-Intein Splicing Activity. [Related pubchem assays (depositor defined):AID2097, AID2223, AID489010, AID492950]; assay type: functional
T4 sequence (P9WHJ3 whole entry): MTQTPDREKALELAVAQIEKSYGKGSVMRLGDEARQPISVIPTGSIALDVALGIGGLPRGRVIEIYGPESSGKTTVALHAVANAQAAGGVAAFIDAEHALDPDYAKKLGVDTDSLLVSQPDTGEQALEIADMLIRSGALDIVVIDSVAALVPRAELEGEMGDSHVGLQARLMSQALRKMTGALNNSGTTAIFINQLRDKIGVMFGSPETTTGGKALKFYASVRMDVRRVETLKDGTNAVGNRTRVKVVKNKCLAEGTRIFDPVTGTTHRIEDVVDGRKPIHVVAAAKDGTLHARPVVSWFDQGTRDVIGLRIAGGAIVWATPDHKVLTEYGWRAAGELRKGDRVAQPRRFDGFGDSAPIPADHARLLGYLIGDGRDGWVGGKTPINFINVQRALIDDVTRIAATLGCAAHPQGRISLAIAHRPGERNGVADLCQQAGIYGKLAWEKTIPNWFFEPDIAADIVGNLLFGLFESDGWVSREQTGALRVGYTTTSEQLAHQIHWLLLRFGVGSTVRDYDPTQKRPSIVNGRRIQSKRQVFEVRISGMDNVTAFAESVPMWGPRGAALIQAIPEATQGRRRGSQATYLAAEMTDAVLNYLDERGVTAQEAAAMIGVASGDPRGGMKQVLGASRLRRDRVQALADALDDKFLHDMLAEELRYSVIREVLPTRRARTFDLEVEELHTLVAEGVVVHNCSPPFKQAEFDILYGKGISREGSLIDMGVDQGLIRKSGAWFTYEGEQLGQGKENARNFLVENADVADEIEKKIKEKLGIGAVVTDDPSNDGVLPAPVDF

[7] = target: T5, Replicative DNA helicase DnaB (Mycobacterium tuberculosis, UniProt P9WMR3); experiment: DnaB intein splicing inhibitors, dose response, biochemical, cell-free fluorescence (AID 449749); assay type: functional
T5 sequence (P9WMR3 whole entry): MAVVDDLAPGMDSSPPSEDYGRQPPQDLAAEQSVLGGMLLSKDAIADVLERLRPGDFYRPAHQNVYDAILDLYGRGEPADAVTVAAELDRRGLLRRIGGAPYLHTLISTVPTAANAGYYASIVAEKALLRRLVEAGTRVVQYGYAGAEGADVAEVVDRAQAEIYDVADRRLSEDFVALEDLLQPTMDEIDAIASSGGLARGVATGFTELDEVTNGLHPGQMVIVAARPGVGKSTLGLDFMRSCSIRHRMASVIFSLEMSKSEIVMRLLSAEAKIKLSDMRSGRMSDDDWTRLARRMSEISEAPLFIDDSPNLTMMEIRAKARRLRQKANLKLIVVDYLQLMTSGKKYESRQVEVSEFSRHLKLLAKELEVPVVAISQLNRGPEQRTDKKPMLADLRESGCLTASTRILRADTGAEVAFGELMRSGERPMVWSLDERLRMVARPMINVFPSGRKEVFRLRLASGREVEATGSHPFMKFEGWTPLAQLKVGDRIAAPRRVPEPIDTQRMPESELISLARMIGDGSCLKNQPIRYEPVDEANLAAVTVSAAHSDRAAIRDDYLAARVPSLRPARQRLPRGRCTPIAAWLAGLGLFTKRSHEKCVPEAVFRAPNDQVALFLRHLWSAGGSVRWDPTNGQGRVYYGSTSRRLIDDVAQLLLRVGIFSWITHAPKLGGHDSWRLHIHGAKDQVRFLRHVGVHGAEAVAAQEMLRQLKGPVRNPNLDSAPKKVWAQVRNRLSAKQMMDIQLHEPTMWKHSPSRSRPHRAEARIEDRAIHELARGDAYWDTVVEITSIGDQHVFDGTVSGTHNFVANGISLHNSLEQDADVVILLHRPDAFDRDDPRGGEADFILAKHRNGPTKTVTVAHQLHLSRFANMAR

[8] = target: T6, Rac GTPase-activating protein 1 (Homo sapiens, UniProt Q9H0H5); experiment: blockers of MgcRacGAP-driven Rac1 GTP hydrolysis – biochemical, ADP Hunter fluorescence, primary and confirmatory, confirmation (AID 624330); assay type: functional
T6 sequence (Q9H0H5 whole entry): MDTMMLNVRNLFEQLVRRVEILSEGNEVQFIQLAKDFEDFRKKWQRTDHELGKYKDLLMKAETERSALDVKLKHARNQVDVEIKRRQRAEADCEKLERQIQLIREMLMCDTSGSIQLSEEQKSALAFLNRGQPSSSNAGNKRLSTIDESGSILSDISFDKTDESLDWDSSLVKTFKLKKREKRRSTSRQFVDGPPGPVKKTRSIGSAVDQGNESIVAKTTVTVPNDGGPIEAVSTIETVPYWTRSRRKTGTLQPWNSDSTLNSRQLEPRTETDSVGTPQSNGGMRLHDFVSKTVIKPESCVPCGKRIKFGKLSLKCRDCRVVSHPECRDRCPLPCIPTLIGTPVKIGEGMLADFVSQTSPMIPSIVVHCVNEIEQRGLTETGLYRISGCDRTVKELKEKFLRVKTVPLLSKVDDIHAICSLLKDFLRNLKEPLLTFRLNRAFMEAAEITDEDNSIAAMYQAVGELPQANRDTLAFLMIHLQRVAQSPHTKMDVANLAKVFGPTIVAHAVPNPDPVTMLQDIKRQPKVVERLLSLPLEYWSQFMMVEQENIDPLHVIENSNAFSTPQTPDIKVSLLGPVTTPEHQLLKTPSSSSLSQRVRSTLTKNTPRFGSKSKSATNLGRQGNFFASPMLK

[9] = target: T7, Ubiquitin-conjugating enzyme E2 N (Homo sapiens, UniProt P61088); assay type: functional;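 further: Dose-response confirmation in a TR-FRET assay detecting UBC13-driven polyubiquitin chain formation, inhibition measured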
T7 sequence (P61088 whole entry): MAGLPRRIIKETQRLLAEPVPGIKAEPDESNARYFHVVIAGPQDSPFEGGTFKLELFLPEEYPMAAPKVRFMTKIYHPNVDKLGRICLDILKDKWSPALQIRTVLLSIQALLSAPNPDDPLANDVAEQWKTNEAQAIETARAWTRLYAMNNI

[10] = test system: Streptococcus sp. 'group A'; experiment: Streptococcus pyogenes SK(-)GAS viability under kanamycin – luminescence, BacTiterGlo, confirmation, counter-screen for streptokinase expression inhibitor project, dose response (AID 1900); assay type: functional, organism-based
Streptococcus = experiment: GAS UMAA2166 growth inhibition – luminescence, BacTiterGlo, counter-screen for streptokinase expression inhibitor project, dose response (AID 1915); assay type: functional, organism-based;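 further: potency for reduction of bacterial viability or growth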
Streptokinase A = target: T8, Streptokinase A (Streptococcus pyogenes serotype M1, UniProt P10520); experiment: viability-normalized secreted streptokinase activity reduction – plasminogen activation absorbance, OD405, dose response (AID 1914); assay type: functional, Streptococcus pyogenes M1 GAS;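 further: secreted streptokinase activity via plasminogen activation per viability signal from cell pellet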
T8 sequence (P10520 whole entry): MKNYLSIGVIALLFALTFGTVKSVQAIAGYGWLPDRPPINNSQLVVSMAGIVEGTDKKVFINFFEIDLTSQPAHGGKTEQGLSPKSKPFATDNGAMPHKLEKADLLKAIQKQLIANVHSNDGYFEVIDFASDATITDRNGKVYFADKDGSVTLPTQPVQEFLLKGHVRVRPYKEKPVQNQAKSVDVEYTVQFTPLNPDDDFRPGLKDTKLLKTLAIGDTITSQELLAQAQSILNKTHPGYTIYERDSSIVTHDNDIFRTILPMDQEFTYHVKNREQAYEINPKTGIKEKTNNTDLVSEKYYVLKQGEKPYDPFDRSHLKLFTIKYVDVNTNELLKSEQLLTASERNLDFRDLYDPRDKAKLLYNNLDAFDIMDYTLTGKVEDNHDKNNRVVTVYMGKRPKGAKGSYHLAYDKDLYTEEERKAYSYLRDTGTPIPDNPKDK

CC1CC=C2C(C#N)=C(N)C(C#N)(C#N)C(c3cccs3)C2C1 (stereo not drawn)
EC50 [1]: 14.9 µM (active)
EC50 [2]: 21.7 µM (active)

N=c1c(S(=O)(=O)c2ccc(Cl)cc2)cc2c(=O)n3ccccc3nc2n1C1CCCCC1
EC50 [1]: 125 µM (active)
EC50 [3]: 83.2 µM (active)
EC50 [4]: 14.1 µM (active)
EC50 [5]: > 120 µM (not active)
EC50 [2]: 82.7 µM (inconclusive)

CCN(CC)C(=O)Cn1cc(/C=C2\C(=O)NC(=O)N(c3ccccc3F)C2=O)c2ccccc21
EC50 [1]: > 300 µM (not active)
EC50 [2]: > 300 µM (not active)

CCOC(=O)C1CCN(c2c([N+](=O)[O-])c(C(Cl)Cl)nn2-c2ccccc2)CC1
IC50 [6]: 8.97 µM (not active)

CCOc1cc(C(c2c(C)[nH][nH]c2=O)c2c(C)[nH][nH]c2=O)cc([N+](=O)[O-])c1O
EC50 (Protein RecA): 0.219 µM (active)
EC50 [1]: 2.07 µM (active)
AC50 [7]: 0.299 µM (active)
EC50 [2]: 16.3 µM (active)

Cc1ccc(-c2nn(-c3ccccc3)cc2CNCc2ccccc2)cc1
IC50 [6]: > 50 µM (not active)

Cc1ccc(Cl)cc1N(Cc1ccc(C(=O)NCc2cccnc2)cc1)S(=O)(=O)c1ccccc1
IC50 [6]: 7.55 µM (not active)

Cc1cc(O)ccc1NC(=O)c1ccccc1
IC50 [8]: 69.1 µM (active)

CCC(=O)Nc1ccc(Cl)c(NC(=S)NC(=O)c2cc3ccccc3o2)c1
IC50 [6]: 25.7 µM (not active)

COc1ccccc1NC(=O)COC(=O)c1cc(C)nc2ccccc12
IC50 [9]: > 20 µM (inactive)

Cc1ccc2cc(C#N)c(SCC(=O)NNC(=O)Cc3ccccc3)nc2c1
IC50 [6]: 23.7 µM (not active)

COc1cccc(/C=C(/C(=O)OCC(=O)NC2CCCC(C)C2C)c2ccccc2)c1 (stereo not drawn)
IC50 [6]: 11.6 µM (not active)
EC50 [10]: 6.28 µM (active)
EC50 (Streptococcus): 17.3 µM (active)
EC50 (Streptokinase A): 6.84 µM (active)

O=C(CSc1nc2ccccc2c(=O)n1-c1ccccc1)N1CCc2ccccc21
IC50 [6]: 16.7 µM (not active)

C[C@@H](CN1C2=NC[C@H](Cc3ccccc3)N2C[C@H]1Cc1ccc(O)cc1)NC(=O)CCC1CCCCC1
IC50 [9]: > 20 µM (inactive)

Cc1nn2c(nc(N3CCOCC3)c3ccccc32)c1C=C(C#N)C#N
IC50 [9]: > 20 µM (inactive)

COc1cccc(CNC(=O)CN=C(S)N(Cc2ccccc2)Cc2ccccc2F)c1
IC50 [6]: 6.84 µM (not active)

CC(=O)N1CCN(c2ccc(NCc3cccs3)cc2)CC1
IC50 [8]: 14.1 µM (active)

O=C(Nc1ccc2c(c1)OCO2)c1c(F)c(F)c(F)c(F)c1F
IC50 [6]: > 50 µM (not active)

CCCCOc1ccc(C(=O)NNC(=O)c2cnccn2)cc1OC
IC50 [9]: > 20 µM (inactive)

Nc1ccc2nc(S)sc2c1
IC50 [8]: 30.4 µM (active)

Cc1cc(C)n(CCC(=O)N/N=C/c2ccc(O)cc2)n1
IC50 [8]: 77.2 µM (active)
